Reference: PubChem BioAssay (NCI)
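GI50 is the concentration that inhibits growth by half. TGI is the concentration that stops growth completely.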

Key:
Test in all cases: DTP human tumour cell line panel, 384-well format
SF-539 CNS = tested on: SF-539 CNS
NCI/ADR-RES ovarian = tested on: NCI/ADR-RES ovarian
OVCAR-3 ovarian = tested on: OVCAR-3 ovarian
SNB-75 CNS = tested on: SNB-75 CNS
RPMI-8226 leukemia = tested on: RPMI-8226 leukemia
EKVX NSCLC = tested on: EKVX NSCLC
ACHN renal = tested on: ACHN renal
MDA-MB-435 melanoma = tested on: MDA-MB-435 melanoma
RXF 393 renal = tested on: RXF 393 renal
HOP-92 NSCLC = tested on: HOP-92 NSCLC
COLO 205 colon = tested on: COLO 205 colon
IGROV1 ovarian = tested on: IGROV1 ovarian
NCI-H522 lung = tested on: NCI-H522 lung
HT29 colon = tested on: HT29 colon
MDA-MB-468 breast = tested on: MDA-MB-468 breast
SK-MEL-28 melanoma = tested on: SK-MEL-28 melanoma
SK-OV-3 ovarian = tested on: SK-OV-3 ovarian
UACC-257 melanoma = tested on: UACC-257 melanoma
NCI-H226 lung = tested on: NCI-H226 lung
DU-145 prostate = tested on: DU-145 prostate
HL-60(TB) leukemia = tested on: HL-60(TB) leukemia
786-0 renal = tested on: 786-0 renal
CCRF-CEM leukemia = tested on: CCRF-CEM leukemia
HOP-62 NSCLC = tested on: HOP-62 NSCLC
K-562 leukemia = tested on: K-562 leukemia
PC-3 prostate = tested on: PC-3 prostate
SK-MEL-2 melanoma = tested on: SK-MEL-2 melanoma
NCI-H460 NSCLC = tested on: NCI-H460 NSCLC
SN12C renal = tested on: SN12C renal
OVCAR-8 ovarian = tested on: OVCAR-8 ovarian
HCT-116 colon = tested on: HCT-116 colon
NCI-H322M lung = tested on: NCI-H322M lung
HS 578T breast = tested on: HS 578T breast
A549 NSCLC = tested on: A549 NSCLC
NCI-H23 lung = tested on: NCI-H23 lung
SF-295 CNS = tested on: SF-295 CNS
OVCAR-4 ovarian = tested on: OVCAR-4 ovarian
A498 renal = tested on: A498 renal
UACC-62 melanoma = tested on: UACC-62 melanoma
M14 melanoma = tested on: M14 melanoma
U251 glioblastoma = tested on: U251 glioblastoma
TK-10 renal = tested on: TK-10 renal
LOX IMVI melanoma = tested on: LOX IMVI melanoma
CAKI-1 renal = tested on: CAKI-1 renal
SK-MEL-5 melanoma = tested on: SK-MEL-5 melanoma
MALME-3M melanoma = tested on: MALME-3M melanoma
HCT-15 colon = tested on: HCT-15 colon
KM12 colon = tested on: KM12 colon
MOLT-4 leukemia = tested on: MOLT-4 leukemia
MCF7 breast = tested on: MCF7 breast
SW-620 colon = tested on: SW-620 colon
SF-268 CNS = tested on: SF-268 CNS
SNB-19 CNS = tested on: SNB-19 CNS
HCC-2998 colon = tested on: HCC-2998 colon
BT-549 breast = tested on: BT-549 breast

SMILES: N#Cc1ccc(OC(=O)Nc2cc(Cl)cc(Cl)c2)cc1
- GI50 (SF-539 CNS): 4.28 µM
- TGI (SF-539 CNS): 13.4 µM
- GI50 (NCI/ADR-RES ovarian): 3.79 µM
- TGI (NCI/ADR-RES ovarian): 9.65 µM
- GI50 (OVCAR-3 ovarian): 2.44 µM
- TGI (OVCAR-3 ovarian): 5.16 µM
- GI50 (SNB-75 CNS): 3.32 µM
- TGI (SNB-75 CNS): 9.94 µM
- GI50 (RPMI-8226 leukemia): 2.04 µM
- TGI (RPMI-8226 leukemia): 3.48 µM
- GI50 (EKVX NSCLC): 3.92 µM
- TGI (EKVX NSCLC): 12.6 µM
- GI50 (ACHN renal): 3.51 µM
- TGI (ACHN renal): 10 µM
- GI50 (MDA-MB-435 melanoma): 8.94 µM
- TGI (MDA-MB-435 melanoma): 23.6 µM
- GI50 (RXF 393 renal): 6.26 µM
- TGI (RXF 393 renal): 17.7 µM
- GI50 (HOP-92 NSCLC): 3.23 µM
- TGI (HOP-92 NSCLC): 7.12 µM
- GI50 (COLO 205 colon): 6.65 µM
- TGI (COLO 205 colon): 23.9 µM
- GI50 (IGROV1 ovarian): 4.43 µM
- TGI (IGROV1 ovarian): 15.3 µM
- GI50 (NCI-H522 lung): 3.23 µM
- TGI (NCI-H522 lung): 7.63 µM
- GI50 (HT29 colon): 4.43 µM
- TGI (HT29 colon): 17.3 µM
- GI50 (MDA-MB-468 breast): 9.04 µM
- TGI (MDA-MB-468 breast): 20.9 µM
- GI50 (SK-MEL-28 melanoma): 13.1 µM
- TGI (SK-MEL-28 melanoma): 30.6 µM
- GI50 (SK-OV-3 ovarian): 6 µM
- TGI (SK-OV-3 ovarian): 19.9 µM
- GI50 (UACC-257 melanoma): 6.12 µM
- TGI (UACC-257 melanoma): 15.9 µM
- GI50 (NCI-H226 lung): 3.27 µM
- TGI (NCI-H226 lung): 8.97 µM
- GI50 (DU-145 prostate): 4.29 µM
- TGI (DU-145 prostate): 55.5 µM
- GI50 (HL-60(TB) leukemia): 1.77 µM
- TGI (HL-60(TB) leukemia): 3.16 µM
- GI50 ([…]-0 renal): 7.03 µM
- TGI (786-0 renal): 20.1 µM
- GI50 (CCRF-CEM leukemia): 2.19 µM
- TGI (CCRF-CEM leukemia): 5.31 µM
- GI50 (HOP-62 NSCLC): 3.03 µM
- TGI (HOP-62 NSCLC): 6.05 µM
- GI50 (K-562 leukemia): 7.71 µM
- TGI (K-562 leukemia): 93.1 µM
- GI50 (PC-3 prostate): 3.27 µM
- TGI (PC-3 prostate): 7.27 µM
- GI50 (SK-MEL-2 melanoma): 2.84 µM
- TGI (SK-MEL-2 melanoma): 5.82 µM
- GI50 (NCI-H460 NSCLC): 2.84 µM
- TGI (NCI-H460 NSCLC): 6.62 µM
- GI50 (SN12C renal): 4 µM
- TGI (SN12C renal): 13.2 µM
- GI50 (OVCAR-8 ovarian): 4.1 µM
- TGI (OVCAR-8 ovarian): 12.6 µM
- GI50 (HCT-116 colon): 3.12 µM
- TGI (HCT-116 colon): 7.62 µM
- GI50 (NCI-H322M lung): 11.6 µM
- TGI (NCI-H322M lung): 29.4 µM
- GI50 (HS 578T breast): 7.57 µM
- TGI (HS 578T breast): 20.5 µM
- GI50 (A549 NSCLC): 3.78 µM
- TGI (A549 NSCLC): 12.7 µM
- GI50 (NCI-H23 lung): 2.23 µM
- TGI (NCI-H23 lung): 4.16 µM
- GI50 (SF-295 CNS): 3.07 µM
- TGI (SF-295 CNS): 8.78 µM
- GI50 (OVCAR-4 ovarian): 8.27 µM
- TGI (OVCAR-4 ovarian): 62.2 µM
- GI50 (A498 renal): 3.47 µM
- TGI (A498 renal): 9.21 µM
- GI50 (UACC-62 melanoma): 7.22 µM
- TGI (UACC-62 melanoma): 19.3 µM
- GI50 (M14 melanoma): 5.38 µM
- TGI (M14 melanoma): 15 µM
- GI50 (U251 glioblastoma): 3.43 µM
- TGI (U251 glioblastoma): 7.96 µM
- GI50 (TK-10 renal): 4.01 µM
- TGI (TK-10 renal): 13.1 µM
- GI50 (LOX IMVI melanoma): 3.81 µM
- TGI (LOX IMVI melanoma): 12.7 µM
- GI50 (CAKI-1 renal): 3.69 µM
- TGI (CAKI-1 renal): 10.2 µM
- GI50 (SK-MEL-5 melanoma): 4.36 µM
- TGI (SK-MEL-5 melanoma): 13.2 µM
- GI50 (MALME-3M melanoma): 5.9 µM
- TGI (MALME-3M melanoma): 16.4 µM
- GI50 (HCT-15 colon): 4.14 µM
- TGI (HCT-15 colon): 12.1 µM
- GI50 (KM12 colon): 3.74 µM
- TGI (KM12 colon): 11 µM
- GI50 (MOLT-4 leukemia): 2 µM
- TGI (MOLT-4 leukemia): 3.7 µM
- GI50 (MCF7 breast): 3.75 µM
- TGI (MCF7 breast): 16 µM
- GI50 (SW-620 colon): 4.54 µM
- TGI (SW-620 colon): 14.6 µM
- GI50 (SF-268 CNS): 5.61 µM
- TGI (SF-268 CNS): 21.6 µM
- GI50 (SNB-19 CNS): 4.74 µM
- TGI (SNB-19 CNS): 19.1 µM
- GI50 (HCC-2998 colon): 13.2 µM
- TGI (HCC-2998 colon): 30.8 µM
- GI50 (BT-549 breast): 13.4 µM
- TGI (BT-549 breast): 30.8 µM
